Values after ≈ are worked out from the molar mass of the structure shown. Values joined by “and” are separate entries in the source; they are usually repeats but may differ in a detail not shown here. Equal values may be shown once. Read-outs that look alike come from different tables or passages of the source.
How the values were obtained:
[1] = tested on: Chinese hamster ovarian (CHO) cells; settings: read-out: Cytotoxicity EC50 CHO; MTT assay; ref Coertzen et al. (2018); cited from earlier work
[2] = tested on: P. falciparum NF54 late stage gametocytes (>90% stage IV and V); design: method as in Coertzen et al. (2018); settings: read-out: Late Stage (LG, Luc 72 h) IC50; >90% stage IV and V gametocytes; ref Coertzen et al. (2018); cited from earlier work
P. falciparum Dd2 = tested on: P. falciparum Dd2; design: method as in Coertzen et al. (2018); settings: pLDH, 48 h; ref Coertzen et al. (2018); read-out: Metabolic IC50 Dd2; cited from earlier work
[3] = tested on: P. berghei ANKA GFP-Luc-SMcon sporozoites; assay: P. berghei-luciferase liver stage bioluminescence assay (causal prophylactic mode) in HepG2-CD81 cells; type: cell-based, Plasmodium berghei; settings: for Emax: 48 h, read-out: P.berghei-Luciferase Liver Stage Bioluminescence Assay: Maximum measured (%)
Procedure: (§1) Briefly, HepG2-CD81 cells were seeded into 1,536 well plates containing 50 nL of test and control compounds diluted into DMSO. […] Next, 2 μL of luciferin reagent (Promega BrightGlo) was added to each well and luciferase activity was detected using a Perkin Elmer Envision plate reader. […] In parallel, plates were processed without sporozoites for HepG2 toxicity measurements.
(§2) In continuation of the transmission blocking theme, it is important to establish activities against liver stage parasites. […] This assay uses ultra-high-throughput screening methods optimized for a 1536-well format and a HepG2 human hepatoma cell line. […] To establish selectivity of the compounds for the parasite in the liver stage of infection, cytotoxicity was determined by measuring bioluminescence from the reaction between free ATP of compound-treated, uninfected hepatocytes and a luciferase reporter system.

[4] = tested on: P. falciparum PL08-009 (5C); assay: T0 [3H]-hypoxanthine drug susceptibility assay, artemisinin-resistant clone (C580Y); type: cell-based, Plasmodium falciparum; settings: preliminary, W2 as comparative sensitive strain
P. falciparum NF54 [5] = tested on: P. falciparum NF54; design: method as in Coertzen et al. (2018); settings: SYBR Green I; ref Coertzen et al. (2018); read-out: Proliferative IC50 NF54; cited from earlier work
P. falciparum W2 [6] = assay: T0 [3H]-hypoxanthine drug susceptibility assay; type: cell-based; settings: Plasmodium falciparum; for IC50: W2, read-out: W2 IC50; for IC90: W2, read-out: W2 IC90
P. falciparum NF54 [7] = tested on: P. falciparum NF54; design: method as in Coertzen et al. (2018); settings: pLDH, 48 h; ref Coertzen et al. (2018); read-out: Metabolic IC50 NF54; cited from earlier work
[8] = tested on: P. falciparum NF54 early stage gametocytes (>90% stage I–III); design: method as in Coertzen et al. (2018); settings: read-out: Early Stage (EG, Luc 48 h) IC50; >90% stage I–III gametocytes; ref Coertzen et al. (2018); cited from earlier work
[9] = HepG2 cytotoxicity bioluminescence assay (CellTiterGlo, ATP); type: cell-based, human; settings: human, uninfected HepG2-CD81 cells; for IC50 at 72 h: two biological replicates listed in one cell; for EC50 at 72 h: uninfected HepG2, ATP bioluminescence
Procedure: as §1, §2

HepG2 cells = assay: as above; type: cell-based, human; settings: for HepG2 cytotoxicity IC50 (in words): at 25 μM (artemiside 7) and 50 μM (artemisone 8); for IC50 / HepG2 Cytotoxicity Bioluminescence Assay: Maximum measured (%): two biological replicates listed in one cell
Procedure: as §1, §2

P. falciparum K1 = tested on: P. falciparum K1; design: method as in Coertzen et al. (2018); settings: SYBR Green I; ref Coertzen et al. (2018); read-out: Proliferative IC50 K1; cited from earlier work
P. falciparum W2 [10] = tested on: P. falciparum W2; design: method as in Coertzen et al. (2018); settings: SYBR Green I; ref Coertzen et al. (2018); read-out: Proliferative IC50 W2; cited from earlier work
[11] = tested on: P. falciparum ARC08-22 (4G); assay: T0 [3H]-hypoxanthine drug susceptibility assay, artemisinin-resistant clone (C580Y); type: cell-based, Plasmodium falciparum; settings: preliminary, W2 as comparative sensitive strain
P. falciparum W2 [12] = tested on: P. falciparum W2; design: method as in Lanteri et al., 2014; settings: ref Lanteri et al., 2014; read-out: mean IC50 against W2; cited from earlier work
[13] = tested on: Pf CamWT, Cam3.II, CamWTC580Y, Cam3.IIC580Y, Cam3.IIRev; design: method as in Lanteri et al., 2014; settings: ref Lanteri et al., 2014; read-out: mean IC50 across CamWT, Cam3.II and K13 transfected strains; cited from earlier work
[14] = design: method as in Haynes et al., 2006; settings: ref Haynes et al., 2006; cited from earlier work
[15] = Plasmodium berghei, two biological replicates listed in one cell
[16] = Plasmodium berghei, HepG2, 48 h, liver stage, HepG2 host cells, luciferase after 48 h, ±SD, read-out: P. berghei sporozoites IC50
[17] = Plasmodium berghei, two biological replicates listed in one cell, read-out: P.berghei-Luciferase Liver Stage Bioluminescence Assay: IC50

## C[C@H]1[C@H](N2CCSCC2)O[C@@H]2O[C@@]3(C)CC[C@H]4[C@H](C)CC[C@@H]1[C@@]24OO3 [Artemiside 7, artemiside]
[1]
  EC50: > 271000 nM
[2]
  IC50: 1.5 ± 0.5 nM
P. falciparum Dd2
  IC50: 8.2 ± 1.4 nM
[3]; [15]
  Emax: 98.1%
[3]; [16]
  IC50: 81.3 ± 9.62 nM
[3]; [17]
  IC50: 74.5 nM
[3]; Plasmodium berghei, Conc. 5 μM, read-out: P. berghei sporozoites Maximum inhibition %
  inhibition at 5 µM: 99 ± 1.34%
[3]; two biological replicates listed in one cell, listed as 7 Artemiside (GC008), read-out: P.berghei-Luciferase Liver Stage Bioluminescence Assay: IC50
  IC50: 88.1 nM
[4]
  susceptibility of PL08-009 (5C) clone (in words): no indication of reduced susceptibility
P. falciparum NF54 [5]
  IC50: 1.11 ± 0.17 nM
P. falciparum W2 [6]
  IC50: 2.21 ± 0.42 nM
  IC90: 4.28 ± 0.25 nM
P. falciparum NF54 [7]
  IC50: 6 ± 1.8 nM
[8]
  IC50: 16.4 ± 1 nM
[9]
  IC50 at 72 h: > 25000 nM
  EC50 at 72 h: > 25000 nM
HepG2 cells
  HepG2 cytotoxicity IC50 (in words): no measurable IC50 values
  IC50: > 25000 nM
HepG2 cells; listed as 7 Artemiside (GC008)
  HepG2 Cytotoxicity Bioluminescence Assay: Maximum measured (%): 30.4% and 36.5%
P. falciparum K1
  IC50: 1.6 ± 0.4 nM
P. falciparum W2 [10]
  IC50: 1.75 ± 0.27 nM
[11]
  susceptibility of ARC08-22 (4G) clone (in words): no indication of reduced susceptibility

## C[C@H]1[C@H](N2CCS(=O)(=O)CC2)O[C@@H]2O[C@@]3(C)CC[C@H]4[C@H](C)CC[C@@H]1[C@@]24OO3 [Artemisone 8, artemisone]
[1]
  EC50: > 249000 nM
[2]
  IC50: 42.4 ± 3.3 nM
P. falciparum Dd2
  IC50: 2.7 ± 0.3 nM
P. falciparum W2 [12]
  IC50: 1.9 nM
[3]; [15]
  Emax: 92.1%
[3]; [16]
  IC50: 28 nM
[3]; Plasmodium berghei, read-out: P. berghei sporozoites Maximum inhibition %
  inhibition at 10 µM: 93.3 ± 1.76%
[3]; [17]
  IC50: 27.4 nM
[3]; maintained down to 3 μM, 12-point titrations starting from 10 μM and […]
  inhibition of liver stage parasites: > 75%
[3]; read-out: P. berghei sporozoites IC50, liver stage, HepG2 host cells, luciferase after 48 h, ±SD
  IC50: 28.3 ± 1.27 nM
[3]; two biological replicates listed in one cell, listed as 8 Artemisone (GC003), read-out: P.berghei-Luciferase Liver Stage Bioluminescence Assay: IC50
  IC50: 29.2 nM
[4]
  susceptibility of PL08-009 (5C) clone (in words): no indication of reduced susceptibility
P. falciparum NF54 [5]
  IC50: 1.2 ± 0.4 nM
[13]
  IC50: 2.4 nM
P. falciparum W2 [6]
  IC50: 1.69 ± 0.36 nM
  IC90: 3.42 ± 0.45 nM
P. falciparum NF54 [7]
  IC50: 3 ± 0.8 nM
[8]
  IC50: 1.94 ± 0.11 nM
[9]
  IC50 at 72 h: > 50000 nM
  EC50 at 72 h: > 50000 nM
HepG2 cells
  HepG2 cytotoxicity IC50 (in words): no measurable IC50 values
  IC50: > 50000 nM
HepG2 cells; listed as 8 Artemisone (GC003)
  HepG2 Cytotoxicity Bioluminescence Assay: Maximum measured (%): 11.8% and 16.0%
P. falciparum K1
  IC50: 1.01 ± 0.19 nM
P. falciparum W2 [10]
  IC50: 1.6 ± 0.4 nM
[11]
  susceptibility of ARC08-22 (4G) clone (in words): no indication of reduced susceptibility

## C[C@H]1[C@@H](O)O[C@@H]2O[C@@]3(C)CC[C@H]4[C@H](C)CC[C@@H]1[C@@]24OO3 [DHA 2, dihydroartemisinin]
[1]
  EC50: 25200 nM
[2]
  IC50: 33.7 ± 1.98 nM
P. falciparum Dd2
  IC50: 5.7 ± 2 nM
P. falciparum W2 [12]
  IC50: 5.2 nM
P. falciparum NF54 [5]
  IC50: 2.51 ± 0.19 nM
[13]
  IC50: 11.2 nM
P. falciparum W2 [6]
  IC50: 4.58 ± 2.54 nM
  IC90: 10.3 ± 5.76 nM
P. falciparum NF54 [7]
  IC50: 0.8 ± 0.1 nM
[8]
  IC50: 43 ± 3.9 nM
P. falciparum K1
  IC50: 1.51 ± 0.33 nM
P. falciparum W2 [10]
  IC50: 1.74 ± 0.22 nM

## CC1CCC2C(C)C(NS(N)(=O)=O)OC3OC4(C)CCC1C32OO4 (centres unmarked) [Sulfamide 11]
[1]
  EC50: 56000 ± 4600 nM
[2]
  IC50: 419 ± 59.5 nM
P. falciparum Dd2
  IC50: 16.9 ± 2.6 nM
P. falciparum NF54 [5]
  IC50: 3 ± 1 nM
P. falciparum W2 [6]
  IC50: 4.87 ± 0.59 nM
  IC90: 7.53 ± 0.23 nM
[14]
  water solubility: 0.294 mg/mL (≈ 811 µM)
P. falciparum NF54 [7]
  IC50: 10.9 ± 3.4 nM
[8]
  IC50: 15 ± 2 nM
P. falciparum K1
  IC50: 1.78 ± 0.26 nM
P. falciparum W2 [10]
  IC50: 2.04 ± 0.11 nM

Reference: article PMC6967409 (Frontiers in Chemistry, 2020)
